Consider 19 molecules from patent US20260070887A1 (Shenzhen Zhongge Biological Technology Co., Ltd., priority 2022, published 2026).

One test has as its target KIF18A (Homo sapiens (Human), UniProt Q8NI77). The experiment in a line: KIF18A ATPase activity under tubulin stimulation (ADP-Glo assay). The format is biochemical. The conditions noted are these: KIF18A 30 nM, ATP 150 μM, pig microtubules. The protocol: This experiment assesses the inhibitory effect of the compounds of the present disclosure on the KIF18A target according to the IC50 values by measuring the KIF18A ATPase activity under tubulin stimulation with the presence of the compounds.
• 1. Preparation of 30 mL of reaction buffer: • (1) 450 μL 1M Tris-HCl (pH=7.5)+300 μL 1M MgCl2+30 μL 10% Pluronic F-68 (ThermoFisher, 24040032-100 ml); • (2) adjusting pH to 7.5, and adding water to adjust the volume to 30 mL. • 2. Preparation of a 5 mg/mL pig microtubule (Microtubules; MT) (Cytoskeleton Inc, MT002) stock solution: • (1) 10 mL PM buffer=150 μL 1 M PIPES (pH 7.0)+20 μL 0.5 mM MgCl2+100 μL 2 mM Taxol (Cytoskeleton Inc, TXD01)+9730 μL water. • (2) MT ([…]): Adding 100 μL PM buffer to prepare a 5 mg/mL stock solution. Keeping the MT (Cytoskeleton Inc, MT002) at room temperature for 10-15 minutes, gently mixing and storing same at −80° C. • 3. Preparation of 2 mL of kinase buffer: 2 mL reaction buffer+1 μL 2 mM Taxol (Cytoskeleton Inc, TXD01)+12 μL 5 mg/mL MT (Cytoskeleton Inc, MT002). • 4. Preparation of 2×KIF18A (30 nM) (ChemPartner, CPB-P22-31645) working solution: 2.4 μL 10 μM KIF18A (ChemPartner, CPB-P22-31645)+800 μL 1× kinase buffer. • 5. Preparation of 2×ATP (150 μM) (Promega, G9101) working solution: 12 μL 10 mM ATP+800 μL 1× kinase buffer. • 6. 25 nL of compound was transferred to a 384-well plate using Echo650. • 7. 2.5 μL of 2×KIF18A from Step 4 (final concentration of 30 nM) was added to the 384-well plate and the plate was incubated at 25° C. for 15 minutes. • 8. 2.5 μL of 2×ATP from Step 5 (final concentration of 150 μM) was added to the 384-well plate and the plate was incubated at 25° C. for 15 minutes. • 9. 5 μL ADP-Glo™ Reagent (Promega, G9101) was added to the 384-well plate and the plate was incubated at 25° C. for 40 minutes. • 10. 10 μL of kinase detection reagent (Promega, G9101) was added to the 384-well plate and the plate was incubated at 25° C. for 40 minutes. • 11. Luminescence values were measured using the EnVision Xcite Multilabel Reader (PerkinElmer, 2105-0020).
For orientation: In ADP-Glo the light output rises with the ADP produced.

A further test concerns OVCAR-3 cells. The experiment in a line: OVCAR-3 cell proliferation (Cell Titer-Glo, 10 days). The format is cell-based, human. The protocol: The inhibitory effect on the KIF18A target by the compounds of the present disclosure was evaluated by testing the inhibitory effect on proliferation of OVCAR-3 cells by the compounds of the present disclosure.
The following method was used to determine the effect of the compounds of the present disclosure on the proliferation of human ovarian cancer cells Ovcar-3 (HTB-161, ATCC). Cells were cultured in RPMI-1640 complete medium containing 20% fetal bovine serum, 0.01 mg/mL bovine insulin, 100 U penicillin, and 100 μg/mL streptomycin. The Promega kit Cell Titer-Glo (Cat. No. G7572) was used in this method for test.
For specific steps, reference was made to the kit instructions, and the procedure was outlined below: Test compounds were dissolved in DMSO to prepare a 10 mM stock solution, which was diluted at the predetermined test concentrations, and the test compounds at different concentrations were added to a 384-well cell test plate using ECHO. In the plate pre-added with the test compounds, 400 OVCAR-3 cells in the logarithmic growth phase were seeded per well, ensuring the final concentration of the test compounds in the reaction system ranged between 0.12 nM and 10 μM. The co-culture was maintained in a cell culture incubator for 10 days. Before testing, the cell culture plate was equilibrated for 10 minutes at room temperature, 25 μL of Cell Titer-Glo was added to each well, and the mixture was shaken and mixed well and let stand for 5 minutes. The luminescence values for samples in various wells were read using a microplate reader in Luminescence mode.
The percentage of inhibition of cell proliferation by the test compound at each concentration was calculated by comparing with the values of the control group (0.1% DMSO). The IC50 values of the compounds were obtained by concentration-inhibition rate nonlinear regression analysis of the test compounds using GraphPad Prism 9.
(ATP-based viability assays read luminescence as a measure of living cells.)

Read-outs that look alike come from different tables or passages of the source. A value given as a limit tells only on which side of the number the result lay.

Sequence of KIF18A (Q8NI77 whole entry): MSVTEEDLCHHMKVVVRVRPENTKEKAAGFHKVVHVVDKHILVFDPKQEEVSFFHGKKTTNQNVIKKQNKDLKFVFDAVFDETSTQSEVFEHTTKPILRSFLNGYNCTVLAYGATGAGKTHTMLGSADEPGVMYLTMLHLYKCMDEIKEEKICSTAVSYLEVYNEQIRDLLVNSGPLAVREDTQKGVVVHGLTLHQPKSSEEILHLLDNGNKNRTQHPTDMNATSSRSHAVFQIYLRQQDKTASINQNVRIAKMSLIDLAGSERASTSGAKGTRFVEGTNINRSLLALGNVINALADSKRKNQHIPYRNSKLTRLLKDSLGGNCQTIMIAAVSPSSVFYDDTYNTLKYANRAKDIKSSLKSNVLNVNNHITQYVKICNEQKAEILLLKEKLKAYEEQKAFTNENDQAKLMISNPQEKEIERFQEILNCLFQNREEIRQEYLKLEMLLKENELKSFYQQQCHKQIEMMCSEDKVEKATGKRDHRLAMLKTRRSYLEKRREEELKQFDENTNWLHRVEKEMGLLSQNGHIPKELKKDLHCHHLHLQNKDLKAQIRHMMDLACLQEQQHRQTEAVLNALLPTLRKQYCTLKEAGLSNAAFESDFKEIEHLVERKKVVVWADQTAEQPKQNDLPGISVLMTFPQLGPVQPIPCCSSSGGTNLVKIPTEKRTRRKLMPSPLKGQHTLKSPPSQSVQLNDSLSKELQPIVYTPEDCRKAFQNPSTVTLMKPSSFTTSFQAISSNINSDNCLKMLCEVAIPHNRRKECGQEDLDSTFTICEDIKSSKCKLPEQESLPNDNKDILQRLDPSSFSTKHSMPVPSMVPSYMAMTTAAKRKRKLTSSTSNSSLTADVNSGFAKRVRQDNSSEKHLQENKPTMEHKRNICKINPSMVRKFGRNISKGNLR
Sequence of KIF18A (P02550 whole entry partner): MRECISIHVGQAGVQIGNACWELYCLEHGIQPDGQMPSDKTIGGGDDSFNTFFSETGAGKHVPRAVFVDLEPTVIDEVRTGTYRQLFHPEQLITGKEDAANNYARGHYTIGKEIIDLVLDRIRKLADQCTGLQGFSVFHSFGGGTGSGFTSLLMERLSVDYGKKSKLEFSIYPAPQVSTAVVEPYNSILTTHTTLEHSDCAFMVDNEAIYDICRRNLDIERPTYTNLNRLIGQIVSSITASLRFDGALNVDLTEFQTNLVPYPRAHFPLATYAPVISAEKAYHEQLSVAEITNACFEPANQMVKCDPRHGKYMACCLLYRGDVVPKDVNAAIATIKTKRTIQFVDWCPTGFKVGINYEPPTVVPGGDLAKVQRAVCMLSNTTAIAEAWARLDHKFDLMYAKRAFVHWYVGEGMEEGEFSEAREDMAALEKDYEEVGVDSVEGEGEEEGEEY
Sequence of KIF18A (P02554 whole entry partner): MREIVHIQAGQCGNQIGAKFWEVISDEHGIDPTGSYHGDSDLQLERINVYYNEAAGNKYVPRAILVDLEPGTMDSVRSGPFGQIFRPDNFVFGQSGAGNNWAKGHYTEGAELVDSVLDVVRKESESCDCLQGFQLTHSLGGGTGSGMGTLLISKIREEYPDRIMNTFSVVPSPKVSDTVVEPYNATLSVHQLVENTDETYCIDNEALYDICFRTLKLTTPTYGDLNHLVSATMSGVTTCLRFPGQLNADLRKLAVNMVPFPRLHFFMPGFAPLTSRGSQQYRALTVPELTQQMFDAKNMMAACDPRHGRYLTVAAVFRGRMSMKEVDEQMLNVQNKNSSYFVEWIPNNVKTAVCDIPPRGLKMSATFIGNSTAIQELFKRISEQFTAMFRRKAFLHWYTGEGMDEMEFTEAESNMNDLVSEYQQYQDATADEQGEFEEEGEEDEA

On to `O=C(Nc1cccc2c1OCC1CC(F)(F)CCN21)c1ccc(NS(=O)(=O)CCO)cc1N1CCC2(CC1)CC2` (centres unmarked) [Compound 400, N-(8,8-difluoro-6,6a,7,8,9,10-hexahydrobenzo[b]pyrido[1,2-d][1,4]oxazin-4-yl)-4-((2-hydroxyethyl)sulfonamido)-2-(6-azaspiro[2.5]oct-6-yl)benzamide], for which the IC50 against KIF18A is no more than 50 nM; in the test on OVCAR-3 cells (Homo sapiens, OVCAR-3, 240 h) it was 50 to 500 nM.
Turning to `COC1c2cc3c(NC(=O)c4ccc(NS(=O)(=O)CCO)cc4N4CCC5(CC4)CC5)ccc(C#N)c3n2CCC1(F)F` (centres unmarked) [Compound 428, N-(4-cyano-8,8-difluoro-9-methoxy-6,7,8,9-tetrahydropyridino[1,2-a]indol-1-yl)-4-((2-hydroxyethyl)sulfonamido)-2-(6-azaspiro[2.5]oct-6-yl)benzamide], the IC50 against KIF18A was 50 to 500 nM; with OVCAR-3 cells (Homo sapiens, OVCAR-3, 240 h) it was 50 to 500 nM.
As for `CCS(=O)(=O)Nc1ccc(C(=O)Nc2cccc3c2cc2n3CCCC2O)c(N2CCC3(CC2)CC3)c1` (single isomer, unassigned) [Example 373-P2, 4-(ethylsulfonamido)-N-(9-hydroxy-6,7,8,9-tetrahydropyridino[1,2-a]indol-1-yl)-2-(6-azaspiro[2.5]oct-6-yl)benzamide], the IC50 against KIF18A and in the test with OVCAR-3 cells was 50 to 500 nM throughout.
Take `O=C(Nc1cc(F)cc2c1cc1n2CCOC1)c1ccc(NS(=O)(=O)CCO)cc1N1CCC2(CC1)CC2` [Example 366, N-(7-fluoro-3,4-dihydro-1H-[1,4]oxazino[4,3-a]indol-9-yl)-4-((2-hydroxyethyl)sulfonamido)-2-(6-azaspiro[2.5]oct-6-yl)benzamide]: the IC50 was no more than 50 nM on KIF18A and no more than 50 nM in the test with OVCAR-3 cells (Homo sapiens, OVCAR-3, 240 h).
Turning to `Cc1cc(NC(=O)c2ccc(NS(=O)(=O)CCO)cc2N2CCC(=C(F)F)CC2)c2cc3n(c2c1)CC(C)(C)OC3` [Example 467, 2-(4-(difluoromethylene)piperidin-1-yl)-4-((2-hydroxyethyl)sulfonamide)-N-(3,3,7-trimethyl-3,4-dihydro-1H-[1,4]oxazino[4,3-a]indol-9-yl)benzamide], the IC50 at KIF18A and in the test with OVCAR-3 cells was 50 to 500 nM in each case.
For `O=C(Nc1cccc2c1cc1n2CC(F)(F)CC1)c1ccc(NS(=O)(=O)CCO)cc1N1CCC2(CC1)CC2` [Example 341, N-(7,7-difluoro-6,7,8,9-tetrahydropyridino[1,2-a]indol-1-yl)-4-((2-hydroxyethyl)sulfonamido)-2-(6-azaspiro[2.5]oct-6-yl)benzamide], the IC50 was in the range of 50 to 500 nM at KIF18A and 50 to 500 nM in the test on OVCAR-3 cells (Homo sapiens, OVCAR-3, 240 h).
Take `Cn1cnc(-c2ccc(NC(=O)c3ccc(NS(=O)(=O)CCO)cc3N3CCC4(CC3)CC4)c3cc4n(c23)CC(C)(C)OC4)c1` [Example 529]: the IC50 against KIF18A was 50 to 500 nM; with OVCAR-3 cells (Homo sapiens, OVCAR-3, 240 h), no more than 50 nM.
Consider `COc1ccc(NC(=O)c2ccc(NS(=O)(=O)CCO)cc2N2CCC3(CC2)CC3)c2cc3n(c12)CC(C)OC3C` (centres unmarked) [Example 449], for which the values for the half-inhibitory concentration (IC50) at KIF18A and with OVCAR-3 cells were 50 to 500 nM and no more than 50 nM, respectively.
For `CC1(C)Cn2c(cc3c(NC(=O)c4ccc(NS(=O)(=O)CCO)cc4N4CCC5(CC4)CC5)ccc(F)c32)CO1` [Example 519, N-(6-fluoro-3,3-dimethyl-3,4-dihydro-1H-[1,4]oxazinyl[4,3-a]indol-9-yl)-4-((2-hydroxyethyl)sulfanilamido)-2-(6-azaspiro[2.5]oct-6-yl)benzamide], in that order: 50 to 500 nM and 50 to 500 nM.
For `CC1Cn2c(nc3c(NC(=O)c4ccc(NS(=O)(=O)CCO)cc4N4CCC5(CC4)CC5)cccc32)C(C)O1` (centres unmarked) [Example 444, 2-(6-azaspiro[2.5]oct-6-yl)-N-(1,3-dimethyl-3,4-dihydro-1H-benzo[4,5]imidazo[2,1-c][1,4]oxazin-9-yl)-4-{[(2-hydroxyethyl)sulfonamide]}benzamide], in that order: no more than 50 nM and no more than 50 nM.
Take `CC1(C)Cn2c(cc3c(NC(=O)c4ccc(NS(=O)(=O)CCO)nc4N4CCC5(CC4)CC5)cccc32)CO1` [Example 453, N-(3,3-dimethyl-3,4-dihydro-1H-[1,4]oxazino[4,3-a]indol-9-yl)-6-((2-hydroxyethyl)sulfonamido)-2-(6-azaspiro[2.5]octan-6-yl)nicotinamide]: the IC50 against KIF18A was 50 to 500 nM; in the test on OVCAR-3 cells (Homo sapiens, OVCAR-3, 240 h) it was 500 to 5000 nM.
With `COC1c2cc3c(NC(=O)c4ccc(NS(=O)(=O)CCO)cc4N4CCC5(CC4)CC5)cccc3n2CCC1(F)F` (single isomer, unassigned) [Example 340-P1], the IC50 at KIF18A and with OVCAR-3 cells was 50 to 500 nM throughout.
For `COc1ccc(NC(=O)c2ccc(NS(=O)(=O)CCO)cc2N2CCC3(CC2)CC3)c2cc3n(c12)CCC(F)(F)C3O` (centres unmarked) [Example 482, N-(8,8-difluoro-9-hydroxy-4-methoxy-6,7,8,9-tetrahydropyridino[1,2-a]indol-1-yl)-4-((2-hydroxyethyl)sulfonamido)-2-(6-azaspiro[2.5]oct-6-yl)benzamide], the IC50 on KIF18A is no more than 50 nM; in the test with OVCAR-3 cells (Homo sapiens, OVCAR-3, 240 h) it was no more than 50 nM.
As to `COc1ccc(NC(=O)c2ccc(NS(=O)(=O)CCO)cc2N2CCC3(CC2)CC3)c2nc3n(c12)CC(C)(C)OC3` [Example 488], the IC50 against KIF18A is 50 to 500 nM; in the test with OVCAR-3 cells, no more than 50 nM.
For the molecule `CC(C)Oc1ccc(NC(=O)c2ccc(NS(=O)(=O)CCO)cc2N2CCC3(CC2)CC3)c2cc3n(c12)CC(C)(C)OC3` [Example 531, 4-((2-hydroxyethyl)sulfonamido)-N-(6-isopropoxy-3,3-dimethyl-3,4-dihydro-1H-[1,4]oxazinyl[4,3-a]indol-9-yl)-2-(6-azaspiro[2.5]oct-6-yl)benzamide], the IC50 at KIF18A was in the range of 50 to 500 nM; in the test on OVCAR-3 cells (Homo sapiens, OVCAR-3, 240 h), 50 to 500 nM.
With `O=C(Nc1cccc2c1CC1COCCN21)c1ccc(NS(=O)(=O)CCO)cc1N1CCC2(CC1)CC2` (centres unmarked) [Compound 411, 4-((2-hydroxyethyl)sulfonamido)-2-(6-azaspiro[2.5]oct-6-yl)-N-(3,4,10,10-tetrahydro-1H-[1,4]oxazino[4,3-a]indol-9-yl)benzamide], the IC50 on KIF18A and in the test with OVCAR-3 cells was 50 to 500 nM each time.
As for `O=C(Nc1ccc(OC(F)(F)F)c2c1cc1n2CCC(F)(F)C1)c1ccc(NS(=O)(=O)CCO)cc1N1CCC(=C(F)F)CC1` [Example 585], the IC50 lay in the range of 50 to 500 nM at KIF18A and 50 to 500 nM with OVCAR-3 cells (Homo sapiens, OVCAR-3, 240 h).
Consider `O=C(Nc1cccc2c1cc1n2CCOC1=O)c1ccc(NS(=O)(=O)CCO)cc1N1CCC2(CC1)CC2` [Example 346, 4-((2-hydroxyethyl)sulfonamido)-N-(1-oxo-3,4-dihydro-1H-[1,4]oxazino[4,3-a]indol-9-yl)-2-(6-azaspiro[2.5]oct-6-yl)benzamide], for which the IC50 is 50 to 500 nM at KIF18A and greater than 5000 nM with OVCAR-3 cells (Homo sapiens, OVCAR-3, 240 h).
For `CCS(=O)(=O)Nc1ccc(C(=O)Nc2cccc3c2cc2n3CCCC2O)c(N2CCC3(CC2)CC3)c1` (single isomer, unassigned) [Example 373-P1, 4-(ethylsulfonamido)-N-(9-hydroxy-6,7,8,9-tetrahydropyridino[1,2-a]indol-1-yl)-2-(6-azaspiro[2.5]oct-6-yl)benzamide], in that order: 50 to 500 nM and 50 to 500 nM.

Broadly, the IC50 is the concentration needed to halve the response being measured. High values mean lower potency, low ones higher potency.
